Results from article PMC6062138, “2,4-Diaminothieno[3,2-d]pyrimidines, a new class of anthelmintic with activity against adult and egg stages of whipworm” (PLoS Neglected Tropical Diseases, 2018).
Like-named read-outs stand apart in the source and are kept apart here.

How the values were obtained:
ex vivo T. muris adults [1] = conditions: read-out: EC50 T. muris paralysis assay; cited from earlier work
[2] = set-up: method as in PMID 25370471, PMID 26787751; conditions: solid tumors; cited from earlier work
[3] = system: unembryonated T. muris eggs; assay: Embryonation assay; set-up: species or system Trichuris muris; conditions: for Percentage of unembryonated eggs compared to the DMSO control: duration of embryonation (56–60 days)
Description: One hundred unembryonated eggs were treated with water, 1% v/v DMSO in water or test compounds at a final concentration of 100 μM (unless stated) with 1% v/v DMSO, in the dark at 26°C, either for 56 days or for shorter periods as described. Images were collected on an Olympus BX63 upright microscope using a 60x / 1.42 PlanApo N (Oil) objective and captured and white-balanced using an DP80 camera (Olympus) in monochrome mode through CellSens Dimension v1.16 (Olympus). Images were then processed and analysed using the image analysis platform Fiji.

C. elegans N2 [4] = assay: C. elegans growth assay; set-up: species or system Caenorhabditis elegans; conditions: synchronised L1, 5 days at 20°C, EC50 estimate ± standard error
Description: A mixed-stage C. elegans N2 population was obtained by liquid culture (20°C) according to standard methods. It was then bleached to obtain an egg population with 1.5 mL 4M NaOH, 2.4 mL NaOCl, 2.1 mL water, washed three times, and allowed to hatch in 50 mL S-basal buffer at 20°C overnight to obtain a synchronised L1 population. For the growth assay, 49 μL of S-complete buffer and 1 μL of DMSO or DMSO plus compound were added to each well of 96-well plates. 50 μL of a worm suspension (approximately 20 synchronised L1 worms, 1% w/v E. coli HB101 in S-complete buffer) were then added to each well. Plates were incubated at 20°C before imaging 5 days later. Worm movement was stimulated by inserting and removing a 96-well PCR plate into/from the wells of the assay plate, and then whole plate 200 frame movies were recorded at 30 frames per second. Growth was quantified as a correlate of movement using the same automated system described earlier, which estimates movement for each well by categorising pixels as imaging movement if their variance is greater the mean plus one standard deviation of the variances of all the pixels on the plate.

ex vivo T. muris adults [5] = assay: T. muris ex vivo adult motility (paralysis) assay; set-up: species or system Trichuris muris; conditions: for EC50: Trichuris muris; for Activity in hit confirmation and expansion motility screen: library material (DMSO solution), 100μM
Description: T. muris worms were cultured using severe combined immune deficiency (SCID) mice, at the Biological Services Facility at the University of Manchester. Male and female mice were infected with 200 infective embryonated T. muris eggs via oral gavage. Thirty-five days later, the mice were sacrificed. Adult T. muris were obtained from the intestine as previously described. Worms were maintained in Roswell Park Memorial Institute (RPMI) 1640 media supplemented with penicillin (500 U/mL) and streptomycin (500 μg/mL) at approximately 37°C and studied on the same day.
Individual adult worms were added to wells containing 75 μL of RPMI-1640 medium, penicillin (500 U/mL), streptomycin (500 μg/mL) plus 1% v/v final concentration of dimethylsulfoxide (DMSO) or compound dissolved in DMSO. Plates were incubated at 37°C, 5% CO2. Motility was determined after 24 hours.
An automated system was used to quantify worm movement. An earlier version of this system has been previously described. Two hundred frame movies of the whole plate were recorded at 10 frames per second and then motility determined by an algorithm based on thresholding pixel variance over time. For the hit confirmation and expansion assays, library material was used at a final concentration of 100μM. Dose-response curves were calculated with the four factor log-logistic model using the R package drc or using GraphPad Prism.

[6] = system: CMT-93 rectal epithelial cells; assay: WST-8 cytotoxicity assay; type: cell-based; conditions: Mus musculus, CMT93; CMT-93 cells, 72 hours, max 100 μM, n = 8, 95% confidence interval in parentheses
Description: (§1) The mouse rectal epithelial cell line CMT-93 (LGC Promochem, Teddington, United Kingdom) was used for these studies. The WST-8 and neutral red cytotoxicity assays were performed as described. Briefly, cells were cultured with test compounds, chlorpromazine positive control or DMSO alone (final compound concentrations of 0 to 100 μM) for 72 hours. The WST-8 assay was then carried out using the Cell Counting Kit– 8 (Sigma Aldrich # 96992) with an incubation time of 2 hours. This time was chosen according to the manufacturer’s instructions and was such that the absorbance of the WST-8 formazan dye was within the linear range of the microplate reader. Following this assay, the medium was exchanged, and the ability of the cells to take up the dye neutral red (concentration 33 μg/mL, incubation time 2 hours) was determined using a microplate reader (absorbance at 540 nm). Results were analysed using GraphPad Prism and fitted using a log-logistic model.

[7] = system: CMT-93 rectal epithelial cells; assay: Neutral red cytotoxicity assay; type: cell-based; conditions: Mus musculus, CMT93; CMT-93 cells, 72 hours, max 100 μM, n = 8, 95% confidence interval in parentheses
Description: as §1

[8] = system: embryonated T. muris eggs; assay: In vivo hatching and infection establishment of treated eggs in SCID mice; set-up: species or system Trichuris muris in SCID mice; conditions: eggs soaked 14 days in 100 μM; SCID mice given 40 eggs; L2 larvae counted day 15 post infection; batch normalised to DMSO
Description: (§2) 100 infective embryonated eggs were incubated in deionised water with 1% v/v DMSO or test compounds at a final concentration of 100 μM in 1% v/v DMSO for 14 days at room temperature in the dark. Eggs were then washed and resuspended in deionised water. For in vitro hatching assays 100 eggs were added to 1 mL of E. coli bacterial culture grown in LB broth overnight at 37°C shaking at 200 rpm. Egg-bacterial cultures were incubated for 24 hours at 37°C, 5% CO2 and hatching determined following blinding by visual examination under a dissecting microscope. For in vivo hatching assays, 40 eggs were counted under a dissecting microscope and given to a SCID mouse in 200 μL water. At day 15 post-infection mice were culled and the number of L2 larvae present in the caecae and colon enumerated in a blinded manner under a dissecting microscope.
The experiment was conducted in two ‘experimental batches’. For batch one there were 5 mice in each of the DMSO and OX02926 groups. For batch two there were 9 mice in each of the DMSO and OX02926 groups. The raw data (number of worms that established infection in each mouse) are shown separated by batch and treatment in the S1 Fig.
To analyse the data we used a two-way ANOVA (worm number ~ treatment * batch). […] There was no significant interaction between treatment and batch [F(1,24) = 0.296, P = 0.59153]. […]

[9] = system: embryonated T. muris eggs; assay: In vitro hatching of compound-soaked embryonated eggs in E. coli culture; set-up: species or system Trichuris muris; conditions: eggs soaked 14 days at 100 μM, then 24 hours in E. coli culture at 37°C
Description: as §2

C. elegans N2 [10] = system: C. elegans N2; set-up: method as in PMID 29223747; conditions: read-out: EC50 C. elegans growth assay; cited from earlier work
T. trichiura = conditions: cited from earlier work; for Cure rate, T. trichiura infection: single dose; for Cure rate against whipworm: single doses as used in MDA, no reference given
[11] = shown for comparison in Table 1, read-out: Adult Trichuris paralysis assay EC50

| Compound | EC50 (ex vivo T. muris adults [1]) [µM] | EC50 (C. elegans N2 [4]; Caenorhabditis elegans, 120 h) [µM] | EC50 (ex vivo T. muris adults [5]; [11]) [µM] | Activity in hit confirmation and expansion motility screen (ex vivo T. muris adults [5]) | EC50 [6] [µM] | EC50 [7] [µM] | also measured |
| --- | --- | --- | --- | --- | --- | --- | --- |
| Cc1ccc(CN2C(=O)COCc3cc(-c4ccncc4)ccc32)cc1 [OX02983] | 50 ± 13 | – | – | – | – | – | – |
| CS(=O)(=O)N1CCN(Cc2cc3nc(-c4cccc5[nH]ncc45)nc(N4CCOCC4)c3s2)CC1 [Pictilisib, pictilisib] | – | – | – | – | – | – | Tolerability in Phase I trials [2]: tolerated |
| CNc1nc(NCCOc2ccccc2)c2sccc2n1 [OX02925, N^2-Methyl-N^4-(2-phenoxyethyl)thieno[3,2-d]pyrimidine-2,4-diamine] | – | 82 ± 9 | 47 | active | 75 | 29 | Percentage of unembryonated eggs compared to the DMSO control ([3]; 100 μM, 26°C): significant increase |
| COCCNc1nc(NCCOc2ccccc2Cl)c2sccc2n1 [OX02926, N^4-(2-(2-Chlorophenoxy)ethyl)-N^2-(2-methoxyethyl)thieno[3,2-d]pyrimidine-2,4-diamine] | – | 82 ± 37 | 27 | confirmed this activity | 43 | 21 | melting point: 69 to 97 °C; Reduction of the burden of worms in vivo [8]: ~40%; EC50 (C. elegans N2 [4]): 87 ± 37 µM; EC50 (ex vivo T. muris adults [5]; equivalent of 27μM, read-out: EC50 adult whipworm motility assay, mass equivalent): 10.2 µg/mL; In vitro hatching of treated embryonated eggs compared to DMSO control [9]: significant decrease |
| Cc1c(CN2CCN(C(=O)[C@H](C)O)CC2)sc2c(N3CCOCC3)nc(-c3cnc(N)nc3)nc12 [apitolisib] | – | – | – | – | – | – | Tolerability in Phase I trials [2]: tolerated |
| COC(=O)Nc1nc2ccc(C(=O)c3ccccc3)cc2[nH]1 [Mebendazole] | > 600 | – | – | – | – | – | EC50 (C. elegans N2 [10]): 1.1 ± 0.2 µM; Cure rate, T. trichiura infection (T. trichiura): 36%; Cure rate against whipworm (T. trichiura): less than 40% |
| COc1ccccc1CNc1nc(NCCOc2ccccc2Cl)c2sccc2n1 [OX03143, N^4-(2-(2-chlorophenoxy)ethyl)-N^2-(2-methoxybenzyl)thieno[3,2-d]pyrimidine-2,4-diamine] | – | 7 ± 1 | > 80 | active | 15 | 5 | – |
| CNc1nc(NCCOc2ccccc2Cl)c2sccc2n1 [OX03147, N^4-(2-(2-chlorophenoxy)ethyl)-N^2-methylthieno[3,2-d]pyrimidine-2,4-diamine] | – | 11 ± 2 | 44 | active | 37 | 21 | Larval length after shortened exposure ([3]; 100 μM, 26°C, 2–4 week and 4–6 week groups): not affected; Percentage of unembryonated eggs compared to the DMSO control ([3]; 100 μM, 26°C): significant increase; Larval length after shortened exposure ([3]; 100 μM, 26°C, soaking weeks 0–3, P = 0.0076 vs DMSO): clear larval stunting; Proportion of unembryonated eggs after shortened exposure ([3]; 100 μM, 26°C, weeks 0–2, 0–3, 2–4 or 4–6 of embryonation): no increase; Morphology of L1 larvae within the egg after shortened exposure ([3]; 100 μM, 26°C, weeks 0–3, 2–4 or 4–6): clear morphological alterations; Drug dose at which increased number of unembryonated eggs was detected ([3]; concentration response, both 26°C and room temperature, 56 days): 100 µM; Effect on egg morphology / larval length at low concentration ([3]; concentrations as low as 1 μM, 26°C, 56 days): significant larval stunting |
| CCCSc1ccc2nc(NC(=O)OC)[nH]c2c1 [Albendazole] | > 800 | – | – | – | – | – | Cure rate, T. trichiura infection (T. trichiura): 28%; Cure rate against whipworm (T. trichiura): less than 40% |
| c1ccc([C@H]2CN3CCSC3=N2)cc1 [Levamisole] | 8 ± 3 | – | – | – | – | – | EC50 (C. elegans N2 [10]): 5 ± 1 µM |
